We go through five molecules from publication PMC7764243, “Alterins Produced by Oyster-Associated Pseudoalteromonas Are Antibacterial Cyclolipopeptides with LPS-Binding Activity” (Marine Drugs, 2020).

Values after ≈ are worked out from the molar mass of the structure shown. Where two headings read alike, the source gives them in different places. *1 amine or outer side, *2 acyl side, *3 side chain or, on linkers, in order; H or OH if unused. Where a SMILES comes first, the peptide text is derived from it. Bridges are numbered along the chain shown (N, C = ends). [ ]: non-standard residue; d: D form. The star is where a group is joined. ξ: configuration not given here. Dab(3ξ-OH) = O=C([C@@H](N[*:1])C(O)CN[*:3])[*:2]; X1 = C/C=C(/N[*:1])C(=O)[*:2]; Lauroyl = CCCCCCCCCCCC(=O)*; Nonanoyl = CCCCCCCCC(=O)*; Octanoyl = CCCCCCCC(=O)*; Dab = NCC[C@H](N)C(=O)O; X2 = CCCC/C=C\CCCC(=O)*

Assay [1] concerns E. coli SBS363. Format: cell-based, Escherichia coli. Particulars: E. coli SBS363 (short-chain LPS); broth microdilution, 0.1 to 100 µM, 1.10^6 UFC/mL, 48 h, read by unaided eye. How it is done: (§1) Antibacterial activity was assayed against a panel of micro-organisms including human and aquaculture pathogenic bacterial species. MICs were performed and defined according to internationally recognized standards (CLSI [21]). Polymyxin B (PMB), an antibiotic CLP produced by Paenibacillus polymyxa, was used as positive control. The major produced alterins, i.e., alt_952, alt_954, alt_970 and alt_980 were assayed against the whole panel of target cells while the minor ones were only tested against a few bacterial strains (Table 2).
(§2) The bacterial strains Aeromonas caviae CIP 7616, Aeromonas hydrophila CIP 7614, Escherichia coli ML35, Escherichia coli SBS 363, Salmonella enterica CIP 8297 and Yersinia ruckeri ATCC 29473 were grown in Tryptic Soy Broth. The marine bacterial strains Vibrio crassostreaeJ2–9, Vibrio tasmaniensisLGP32, Vibrio tapetis CECT 4600 were grown in Marine Broth. All of them were cultivated at optimal temperature according to ATCC and CIP specifications. The strain Vibrio parahaemolyticus13-028A/3 was grown at 28 °C in Tryptic Soy Broth supplemented in NaCl (20 g.L^−1) according to [47]. The strains Pseudoalteromonas sp. hCg-6 and hCg-42 were cultured using a synthetic medium containing: 17.11 g sucrose, 30 g sea salts (Sigma-S9883), 7.6 g K2HPO4, 3 g KH2PO4 and 20 mL MEM 50X (Dulbecco) per liter. The cultures were grown at 18 °C for 72 h with shaking (100 rpm).
(§3) MICs were determined using broth microdilution method according to [21]. To resume, antibacterial compounds ranging from 0.1 to 100 µM were assayed against the target bacteria in mid-logarithmic phase culture (1.10^6 UFC.mL^−1) in adapted culture medium according to the strain. MICs were examined by unaided eye after a 48h-incubation time at the optimal temperature growth. The lipopeptide PMB (Sigma-P4932) was used as antibiotic control.

The subject of assay [2] is Y. ruckeri ATCC 29473. Format: cell-based, Yersinia ruckeri. On the procedure: as §1, §2, §3
For assay [3], the system named is V. harveyi ORM4. Format: cell-based, Vibrio harveyi. How it is done: as §1, §3
Assay [4] relates to P. aeruginosa ATCC 27853. In kind it is cell-based, Pseudomonas aeruginosa. How it is done: as §1, §3
For assay [5], the system named is A. hydrophila CIP 7614. In kind it is cell-based, Aeromonas hydrophila. On the procedure:
as §1, §2, §3

For assay [6], the system named is E. coli ML35. Format: cell-based, Escherichia coli. How it is done:
as §1, §2, §3

Assay [7] has as its system Pseudoalteromonas hCg-6. In kind it is cell-based, Pseudoalteromonas sp. The conditions noted are these: 48 h. On the procedure:
as §1, §2, §3

Assay [8] deals with Pseudoalteromonas hCg-42. Format: cell-based, Pseudoalteromonas sp. Particulars: 48 h. On the procedure:
as §1, §2, §3

The test system of assay [9] is S. enterica CIP 8297. In kind it is cell-based, Salmonella enterica. The conditions noted are these: broth microdilution, 0.1 to 100 µM, 1.10^6 UFC/mL, 48 h, read by unaided eye. How it is done:
as §1, §2, §3

In assay [10] the test system is V. tapetis CECT 4600T. In kind it is cell-based, Vibrio tapetis. On the procedure:
as §1, §2, §3

In assay [11] the test system is V. parahaemolyticus 13-028A/3. In kind it is cell-based, Vibrio parahaemolyticus. Particulars: broth microdilution, 0.1 to 100 µM, 1.10^6 UFC/mL, 48 h, read by unaided eye. How it is done: as §1, §2, §3
Assay [12] relates to A. caviae CIP 7616. Format: cell-based, Aeromonas caviae. Particulars: broth microdilution, 0.1 to 100 µM, 1.10^6 UFC/mL, 48 h, read by unaided eye. On the procedure:
as §1, §2, §3

Assay [13] concerns V. tasmaniensis LGP 32. Format: cell-based, Vibrio tasmaniensis. The conditions noted are these: 48 h. How it is done: as §1, §2, §3
In assay [14] the test system is Vibrio tasmaniensis LGP32. As to the kind of experiment: Membrane potential, DiBAC4(3) flow cytometry. Format: cell-based. How it is done:
To assess alterin physiological impact on Gram-negative cells, flow cytometry analyses were implemented using Live/Dead cell viability assay and the membrane potential dye, DiBAC4(3) on V. tasmaniensis LGP32 treated as previously (i.e., […]).
The membrane potential of the target bacteria was analysed using the potential-sensitive probe Bis-1,3-Dibutylbarbituric AcideTrimethineOxonol, (DiBAC4(3), MolecularProbes). DiBAC4(3) was reconstituted in DMSO stock solution at 1mM and stocked at −20 °C until use. Samples (500 µL) were incubated with 1 µL of DiBAC4(3) stock solution for 10mn in the dark. Under the effect of depolarization cells accumulate DiBAC4(3), fluoresce bright green and can easily be detected by flow cytometry. After excitation at 488 nm cells with depolarized membrane become fluorescent and reemit at 516 nm recovery of the signal at FL1. Positive control of the initial sample is carried out with 20% alcohol.

In assay [15] the test system is V. tasmaniensis LGP32. As to the kind of experiment: Viability (cultivability, CFU count) in seawater. Format: cell-based, Vibrio tasmaniensis. How it is done: As a first step, we have measured the antimicrobial activity of alt_952, alt_954, alt_970 and alt_980 against V. tasmaniensis LGP32 in seawater after a 4 hour-long incubation. […] The effects on membrane were also investigated under the same experimental conditions using live/dead bacterial viability kit for flow cytometry (Figure 6). A net cultivability loss of V. tasmaniensis (2-log reduction) was observed when incubated with alt_954 and alt_980 indicative of a bactericidal effect (Figure 7A). In these conditions, V. tasmaniensis was much less affected by alt_970 (1-log reduction) and not by alt_952 (Figure 7A).
[…] After a 4 h-long incubation, viable bacteria were counted. Diluted samples (50 µL) in sterile seawater were spread in duplicate on appropriate medium. Cultivable bacterial concentration (CFU mL^−1) was determined after overnight incubation at optimal growth temperature.

Turning to `C/C=C1/NC(=O)[C@@H](NC(=O)CCCCCCCCCCC)C(O)CNC(=O)[C@H](C(O)CN)NC(=O)[C@H](C(O)CN)NC(=O)[C@H](CCCNC(=N)N)NC(=O)[C@H](CC(C)C)NC(=O)[C@H](CCN)NC1=O` (stereo partly shown) [alt_982] (Lauroyl-[Dab(3ξ-OH)][X1][Dab]LR[Dab(3ξ-OH)][Dab(3ξ-OH)]; lactam 1-C), the MIC was 6.3 µM (≈ 6.19 µg/mL) in [1] and 12.5 µM (≈ 12.3 µg/mL) in assay [2] (ATCC 29473, 48 h).
As to Polymyxin B [PMB, reference compound], the minimal inhibitory concentration (MIC) in [3] (V. harveyi ORM4, broth microdilution, 0.1 to 100 µM, 1.10^6 UFC/mL, 48 h, read by unaided eye) was determined as 25 µM; in [4] (P. aeruginosa ATCC 27853, broth microdilution, 0.1 to 100 µM, 1.10^6 UFC/mL, 48 h, read by unaided eye) it was 1.6 µM; in assay [5] (A. hydrophila CIP 7614, broth microdilution, 0.1 to 100 µM, 1.10^6 UFC/mL, 48 h, read by unaided eye), 0.8 µM; in assay [6] (E. coli ML35 (long-chain LPS), broth microdilution, 0.1 to 100 µM, 1.10^6 UFC/mL, 48 h, read by unaided eye) it was 3.1 µM; in assay [1], 0.2 µM; in assay [2] (Y. ruckeri ATCC 29473, broth microdilution, 0.1 to 100 µM, 1.10^6 UFC/mL, 48 h, read by unaided eye) it was 0.4 µM. In addition, the MIC in [7] (Pseudoalteromonas hCg-6 (producing strain), broth microdilution, 0.1 to 100 µM, 1.10^6 UFC/mL, read by unaided eye) is listed as greater than 100 µM; in [8] (Pseudoalteromonas hCg-42 (producing strain), broth microdilution, 0.1 to 100 µM, 1.10^6 UFC/mL, read by unaided eye), greater than 100 µM; in assay [9], 0.8 µM; in [10] (V. tapetis CECT 4600T, broth microdilution, 0.1 to 100 µM, 1.10^6 UFC/mL, 48 h, read by unaided eye), greater than 100 µM; in assay [11], greater than 100 µM; in [12], 3.1 µM. The minimal inhibitory concentration (MIC) in assay [13] (V. tasmaniensis LGP 32, broth microdilution, 0.1 to 100 µM, 1.10^6 UFC/mL, read by unaided eye) was 3 µM.
Consider `C/C=C1/NC(=O)[C@@H](NC(=O)CCC/C=C\CCCC)C(O)CNC(=O)[C@H](C(O)CN)NC(=O)[C@H](C(O)CN)NC(=O)[C@H](CCCNC(=N)N)NC(=O)[C@H](CC(C)C)NC(=O)[C@H](CCN)NC1=O` (stereo partly shown) [alt_952] (X2-[Dab(3ξ-OH)][X1][Dab]LR[Dab(3ξ-OH)][Dab(3ξ-OH)]; lactam 1-C), for which the “cells with depolarized membrane” value in [14] (20 µM, 4 h in sterile seawater) is recorded as “around 55%”. For the same molecule, the cells depolarization in assay [14] (300 µM, 4 h in seawater) is given as 100%. For the same molecule, the MIC in [3] (ORM4, 48 h) is 12.5 µM (≈ 11.9 µg/mL); in assay [4] (ATCC 27853, 48 h), 50 µM (≈ 47.7 µg/mL); in assay [6] (ML35, 48 h), 25 µM (≈ 23.8 µg/mL); in assay [1] it was 0.8 µM (≈ 0.763 µg/mL); in [2] (ATCC 29473, 48 h), 0.4 µM (≈ 0.381 µg/mL); in assay [7], greater than 100 µM. Further, the MIC is greater than 100 µM in assay [8]; 6.25 µM (≈ 5.96 µg/mL) in [9]; greater than 100 µM in assay [10] (CECT 4600, 48 h); 50 µM (≈ 47.7 µg/mL) in assay [13]. The “cultivability loss of V. tasmaniensis (log reduction of CFU)” value in assay [15] (20 µM, 4 h incubation in sterile seawater, inoculum 1.10^6 UFC/mL, plated in duplicate) is given as “no antibacterial effect”. In addition, in assay [15] (300 µM, 4 h in seawater (data not shown)), the “cultivability loss of V. tasmaniensis” value was “identical to those observed using alt_954 and alt_980 at 20 µM”.
In the case of `C/C=C1/NC(=O)[C@@H](NC(=O)CCCCCCCC)C(O)CNC(=O)[C@H](C(O)CN)NC(=O)[C@H](C(O)CN)NC(=O)[C@H](CCCNC(=N)N)NC(=O)[C@H](CC(C)C)NC(=O)[C@H](CCN)NC1=O` (stereo partly shown) [alt_940] (Nonanoyl-[Dab(3ξ-OH)][X1][Dab]LR[Dab(3ξ-OH)][Dab(3ξ-OH)]; lactam 1-C), the minimum inhibitory concentration (MIC) in assay [3] (ORM4, 48 h) was 6.25 µM (≈ 5.88 µg/mL); in [4] (ATCC 27853, 48 h), 50 µM (≈ 47.1 µg/mL); in assay [5] (CIP 7614, 48 h), 25 µM (≈ 23.5 µg/mL); in assay [6] (ML35, 48 h), 50 µM (≈ 47.1 µg/mL); in assay [1], 25 µM (≈ 23.5 µg/mL); in assay [2] (ATCC 29473, 48 h), 6.25 µM (≈ 5.88 µg/mL). For the same molecule, the MIC in assay [7] is given as greater than 100 µM; in [13], 6.25 µM (≈ 5.88 µg/mL).
Turning to `C/C=C1/NC(=O)[C@@H](NC(=O)CCCCCCC)C(O)CNC(=O)[C@H](C(O)CN)NC(=O)[C@H](C(O)CN)NC(=O)[C@H](CCCNC(=N)N)NC(=O)[C@H](CC(C)C)NC(=O)[C@H](CCN)NC1=O` (stereo partly shown) [alt_926] (Octanoyl-[Dab(3ξ-OH)][X1][Dab]LR[Dab(3ξ-OH)][Dab(3ξ-OH)]; lactam 1-C), the MIC in assay [3] (ORM4, 48 h) is 50 µM (≈ 46.4 µg/mL); in [4] (ATCC 27853, 48 h), greater than 100 µM; in assay [5] (CIP 7614, 48 h), greater than 100 µM; in [6] (ML35, 48 h), 100 µM (≈ 92.7 µg/mL); in assay [1] it was 50 µM (≈ 46.4 µg/mL); in [2] (ATCC 29473, 48 h), 50 µM (≈ 46.4 µg/mL). In addition, the MIC is greater than 100 µM in assay [7], 12.5 µM (≈ 11.6 µg/mL) in assay [9] and 50 µM (≈ 46.4 µg/mL) in [13].
